Laboratory results reported in the supplement of paper PMC4862054.

tested on: MFM-223; assay: drug sensitivity score (DSS), CellTiter-Glo (DSS (AUC-based score)); higher = stronger drug effect (viability inhibition or cytotoxicity); extreme values may be limits of the assay; conditions: incubation time: 72 h
Method in brief: (§1)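 Breast cancer cell lines were seeded in 20 µl suspension into 384-well plates already holding compound and incubated for 72 h. Each compound was tested at 5 concentrations in 10-fold steps across its own 10,000-fold range. Plates were normalised to 0.1 % DMSO and a positive kill control after CellTox Green and then CellTiter-Glo readings. The area under the fitted dose-response curve served as the basis for the drug sensitivity score.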

Row | SMILES | drug sensitivity score
1 | C[C@@H]1CCN(C(=O)CC#N)C[C@@H]1N(C)c1ncnc2[nH]ccc12 [Tofacitinib] | 0
2 | Nc1nccc(-c2c(-c3ccc(F)cc3)ncn2C2CCCCC2)n1 | 0
3 | FC(F)c1nc2ccccc2n1-c1nc(N2CCOCC2)nc(N2CCOCC2)n1 [ZSTK474] | 9.3
4 | Cc1cc(C(C)Nc2ccccc2)c2nc(N3CCOCC3)cc(=O)n2c1 (stereo not given) [TGX-221] | 0
5 | COc1cc(Nc2ncc(F)c(Nc3ccc4c(n3)NC(=O)C(C)(C)O4)n2)cc(OC)c1OC [Tamatinib] | 0

tested on: MDA-MB-231; assay: as above; conditions: incubation time: 72 h
Method in brief: as §1

Row | SMILES | drug sensitivity score
6 | CC(C)(C)c1cc(NC(=O)Nc2ccc(-c3cn4c(n3)sc3cc(OCCN5CCOCC5)ccc34)cc2)no1 [Quizartinib] | 0
7 | CN(c1ccccc1CNc1nc(Nc2ccc3c(c2)CC(=O)N3)ncc1C(F)(F)F)S(C)(=O)=O | 7.82
8 | CS(=O)(=O)CCNCc1ccc(-c2ccc3ncnc(Nc4ccc(OCc5cccc(F)c5)c(Cl)c4)c3c2)o1 [Lapatinib] | 0
9 | COC1=C2C[C@@H](C)C[C@H](OC)[C@H](O)[C@@H](C)/C=C(\C)[C@H](OC(N)=O)[C@@H](OC)/C=C\C=C(/C)C(=O)NC(=CC1=O)C2=O [Geldanamycin] | 5.32
10 | COC(=O)C[C@](O)(CCCC(C)(C)O)C(=O)O[C@@H]1C(OC)=C[C@]23CCCN2CCc2cc4c(cc2[C@H]13)OCO4 [Omacetaxine] | 21.2
11 | C[C@@H]1CCN(C(=O)CC#N)C[C@@H]1N(C)c1ncnc2[nH]ccc12 [Tofacitinib] | 0
12 | Nc1nccc(-c2c(-c3ccc(F)cc3)ncn2C2CCCCC2)n1 | 0
13 | FC(F)c1nc2ccccc2n1-c1nc(N2CCOCC2)nc(N2CCOCC2)n1 [ZSTK474] | 7.99
14 | Cc1cc(C(C)Nc2ccccc2)c2nc(N3CCOCC3)cc(=O)n2c1 (stereo not given) [TGX-221] | 0
15 | COc1cc(Nc2ncc(F)c(Nc3ccc4c(n3)NC(=O)C(C)(C)O4)n2)cc(OC)c1OC [Tamatinib] | 0

tested on: Hs578T; assay: as above; conditions: incubation time: 72 h
Method in brief: as §1

Row | SMILES | drug sensitivity score
16 | CC(C)(C)c1cc(NC(=O)Nc2ccc(-c3cn4c(n3)sc3cc(OCCN5CCOCC5)ccc34)cc2)no1 [Quizartinib] | 0
17 | CN(c1ccccc1CNc1nc(Nc2ccc3c(c2)CC(=O)N3)ncc1C(F)(F)F)S(C)(=O)=O | 4.29
18 | CS(=O)(=O)CCNCc1ccc(-c2ccc3ncnc(Nc4ccc(OCc5cccc(F)c5)c(Cl)c4)c3c2)o1 [Lapatinib] | 0
19 | COC1=C2C[C@@H](C)C[C@H](OC)[C@H](O)[C@@H](C)/C=C(\C)[C@H](OC(N)=O)[C@@H](OC)/C=C\C=C(/C)C(=O)NC(=CC1=O)C2=O [Geldanamycin] | 3.07
20 | COC(=O)C[C@](O)(CCCC(C)(C)O)C(=O)O[C@@H]1C(OC)=C[C@]23CCCN2CCc2cc4c(cc2[C@H]13)OCO4 [Omacetaxine] | 26
21 | C[C@@H]1CCN(C(=O)CC#N)C[C@@H]1N(C)c1ncnc2[nH]ccc12 [Tofacitinib] | 0
22 | Nc1nccc(-c2c(-c3ccc(F)cc3)ncn2C2CCCCC2)n1 | 0
23 | FC(F)c1nc2ccccc2n1-c1nc(N2CCOCC2)nc(N2CCOCC2)n1 [ZSTK474] | 11.3
24 | Cc1cc(C(C)Nc2ccccc2)c2nc(N3CCOCC3)cc(=O)n2c1 (stereo not given) [TGX-221] | 0
25 | COc1cc(Nc2ncc(F)c(Nc3ccc4c(n3)NC(=O)C(C)(C)O4)n2)cc(OC)c1OC [Tamatinib] | 0

tested on: MDA-MB-436; assay: as above; conditions: incubation time: 72 h
Method in brief: as §1

Row | SMILES | drug sensitivity score
26 | CC(C)(C)c1cc(NC(=O)Nc2ccc(-c3cn4c(n3)sc3cc(OCCN5CCOCC5)ccc34)cc2)no1 [Quizartinib] | 0
27 | CN(c1ccccc1CNc1nc(Nc2ccc3c(c2)CC(=O)N3)ncc1C(F)(F)F)S(C)(=O)=O | 2.86
28 | CS(=O)(=O)CCNCc1ccc(-c2ccc3ncnc(Nc4ccc(OCc5cccc(F)c5)c(Cl)c4)c3c2)o1 [Lapatinib] | 0
29 | COC1=C2C[C@@H](C)C[C@H](OC)[C@H](O)[C@@H](C)/C=C(\C)[C@H](OC(N)=O)[C@@H](OC)/C=C\C=C(/C)C(=O)NC(=CC1=O)C2=O [Geldanamycin] | 8.77
30 | COC(=O)C[C@](O)(CCCC(C)(C)O)C(=O)O[C@@H]1C(OC)=C[C@]23CCCN2CCc2cc4c(cc2[C@H]13)OCO4 [Omacetaxine] | 27
31 | C[C@@H]1CCN(C(=O)CC#N)C[C@@H]1N(C)c1ncnc2[nH]ccc12 [Tofacitinib] | 0
32 | Nc1nccc(-c2c(-c3ccc(F)cc3)ncn2C2CCCCC2)n1 | 0
33 | FC(F)c1nc2ccccc2n1-c1nc(N2CCOCC2)nc(N2CCOCC2)n1 [ZSTK474] | 9.24
34 | Cc1cc(C(C)Nc2ccccc2)c2nc(N3CCOCC3)cc(=O)n2c1 (stereo not given) [TGX-221] | 0
35 | COc1cc(Nc2ncc(F)c(Nc3ccc4c(n3)NC(=O)C(C)(C)O4)n2)cc(OC)c1OC [Tamatinib] | 0

tested on: HDQ-P1; assay: normalised viability (% of control), CellTiter-Blue; higher = more viable cells (about 100 = DMSO control); conditions: 0.3 nM; incubation time: 72 h
Method in brief: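 After 72 h on compound-loaded 384-well plates, breast cancer cell lines received 2.5 µl CellTiter-Blue reagent for 2 h at 37 °C. Fluorescence at 560/590 nm was scaled per plate so that vehicle was 100 and a positive kill control was 0. The value stands for normalised viability at a single listed concentration of the series.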

Row | SMILES | normalised viability [%]
36 | CC(C)(C)c1cc(NC(=O)Nc2ccc(-c3cn4c(n3)sc3cc(OCCN5CCOCC5)ccc34)cc2)no1 [Quizartinib] | 94.2

same assay, conditions: 3 nM; incubation time: 72 h

Row | SMILES | normalised viability [%]
37 | CC(C)(C)c1cc(NC(=O)Nc2ccc(-c3cn4c(n3)sc3cc(OCCN5CCOCC5)ccc34)cc2)no1 [Quizartinib] | 103
38 | COC1=C2C[C@@H](C)C[C@H](OC)[C@H](O)[C@@H](C)/C=C(\C)[C@H](OC(N)=O)[C@@H](OC)/C=C\C=C(/C)C(=O)NC(=CC1=O)C2=O [Geldanamycin] | 124
39 | c1ccc(C2CN3CCSC3=N2)cc1 (stereo not given) [Tetramisole] | 117
40 | COc1cc(Nc2ncc(F)c(Nc3ccc4c(n3)NC(=O)C(C)(C)O4)n2)cc(OC)c1OC [R406] | 111
41 | O=P(O)(NCCCl)NCCCl [Ifosfamide mustard] | 107

same assay, conditions: 10 nM; incubation time: 72 h

Row | SMILES | normalised viability [%]
42 | CC(C)(C)c1cc(NC(=O)Nc2ccc(-c3cn4c(n3)sc3cc(OCCN5CCOCC5)ccc34)cc2)no1 [Quizartinib] | 98.8

same assay, conditions: 30 nM; incubation time: 72 h

Row | SMILES | normalised viability [%]
43 | COC1=C2C[C@@H](C)C[C@H](OC)[C@H](O)[C@@H](C)/C=C(\C)[C@H](OC(N)=O)[C@@H](OC)/C=C\C=C(/C)C(=O)NC(=CC1=O)C2=O [Geldanamycin] | 104
44 | c1ccc(C2CN3CCSC3=N2)cc1 (stereo not given) [Tetramisole] | 116
45 | COc1cc(Nc2ncc(F)c(Nc3ccc4c(n3)NC(=O)C(C)(C)O4)n2)cc(OC)c1OC [R406] | 93.7
